Test results: a melting point compilation (Tetko et al.; mined from patent text by program, amines drawn as free bases though some values may be those of a salt)

melting point	Compound
192 to 195 °C	O=C(Cc1ccc(C(=O)O)cc1)C(=O)c1ccccc1
139 to 141 °C	C1=Cc2ccccc2C(N2CCNCC2)c2ccccc21
232 °C	O=C(Nc1ncccn1)Nc1cccc2c1C1CCCCN1C2=O (centres undefined)
165 to 170 °C	O=C(Nc1ccccc1)NC1C(=O)N(CCO)c2ccccc2N(CC23CC4CC(CC(C4)C2)C3)C1=O (single isomer, unassigned; (-))
182 to 184 °C	CN1C(=O)C(NC(=O)CCc2ccc(Cl)cc2Cl)CC(=O)c2ccccc21 (centres undefined)
148 to 150 °C	COc1ccc2c(c1)NC(=O)C(Cl)(Cl)CC2
100 to 102 °C	CN1CCN(CCc2ccc(Nc3ncc4c(n3)-c3ccccc3C(c3cccc(Br)c3)C4)cc2)CC1 (centres undefined)
258 to 259 °C	CCCCc1nc2ccc(C(=O)O)cc2n1Cc1ccc(-c2ccccc2-c2nnn[nH]2)cc1
217 °C	Clc1ccc(-c2cc(-c3cccs3)[nH]n2)cc1
103 to 106 °C	CC(C)N(CCN1C(=O)C(=O)c2ccccc21)C1CCCCC1
> 300 °C	COC(=O)Cc1cccc(NC(=O)NC2C(=O)Nc3ccccc3NC2=O)c1
129 to 132 °C	COCCOCc1c(CN(C)CC(O)c2cccnc2)sc2c(=O)c(C(=O)NCc3ccc(Cl)cc3)cn(C)c12 (centres undefined)
92 to 98 °C	O=C1OC(CCCN2CCN(c3ncccn3)CC2)CN1c1ccccc1 (centres undefined)
122 °C	O=C(CC1CCN(C(=O)OCc2ccccc2)CC1)c1c[nH]c2ccccc12
367 to 374 °C	CN1Cc2c(C(=O)N3CCN(C(=O)c4ncn5c4CN(C)C(=O)c4cc(Cl)ccc4-5)CC3)ncn2-c2ccc(Cl)cc2C1=O
70 to 72 °C	CC(=O)OC1CCCc2cnc3cc(OCc4ccccc4)ccc3c21 (centres undefined)
165 to 167 °C	O=C(O)[C@H](Cc1ccccc1)Nc1c(N2CCN(c3ccccc3)CC2)c(=O)c1=O
147 to 149 °C	COc1ccc2c(c1)Sc1c(cc(OC)c(OC)c1Br)N2C(C)=O
190 °C	CCOC(=O)Nc1ccc(NC(=O)OCc2ccccc2)c(O)c1
194 to 196 °C	CCCc1nc2c(N)nc3ccc(-c4ccccc4CO)cc3c2s1
229 °C	CN1CCN(S(=O)(=O)c2cccc(NC(=O)c3cnn4c(C(F)F)cc(-c5ccc(Cl)c(Cl)c5)nc34)c2)CC1
85 to 87 °C	Clc1ccc(C2Nc3ccccc3S2)cc1 (centres undefined)
> 350 °C	O=C1NC(=S)NC1=Cc1cc(O)c(O)c([N+](=O)[O-])c1
140 to 141 °C	Cc1ccccc1-c1nc(OCCN(C)C)ncc1N(C)C(=O)C(C)(C)c1cc(C(F)(F)F)cc(C(F)(F)F)c1
212 °C	Cc1ccc(C)c2c1C(=O)N(c1ccc(F)cc1F)C2=O
64 to 66 °C	Oc1c(CN2CCCC2)cc(Nc2ccc3ccccc3n2)cc1CN1CCCC1
> 250 °C	O=C(O)c1ccc2cc(Cl)ccn2c1=O

melting point	Compound
102 to 104 °C	CC(C)CCc1c(-c2ccc(S(C)(=O)=O)c(F)c2)cnn(-c2ccc(F)c(Cl)c2)c1=O
128 to 129 °C	Cc1ccc2c(c1)CC(=O)c1cc(C(C)C(=O)O)ccc1O2 (centres undefined)
221 °C	CC1(C)Oc2ccc([N+](=O)[O-])cc2C(n2ccccc2=O)=C1CBr
289 °C	O=C(NC1=Nc2cc(O)ccc2C2=NCCN12)c1cccnc1
124 to 126 °C	CCOC1CCN(c2nnc(-c3ccc(C)cc3)c(-c3ccc(C)cc3)n2)CC1
80 to 84 °C	Cc1ccc(C(F)(F)F)cc1-c1ccc(S(=O)(=O)N2c3ccccc3CC2C(=O)NCCOc2ccc(CC(=O)O)cc2)cc1 (centres undefined)
> 250 °C	COc1ccccc1C(=O)Nc1nc(-c2ccccc2)c(-c2ccc(=O)n(C(C)C)n2)s1
154 to 155 °C	N#CC(C#N)(COc1ccccc1Cl)NC(=O)c1ccc(OC(F)(F)F)cc1
120 to 126 °C	COc1cc(Nc2nc3ccnc(-c4cccc(N)c4)c3o2)cc(OC)c1OC
160 to 161 °C	Cc1oc(-c2ccccc2)nc1COc1ccc(COc2ccc(Cl)cc2CC(=O)O)cc1
251 to 252 °C	CC(=O)c1ccc(NC(=O)Nc2cc(C(C)=O)cc(C(C)=O)c2)cc1
303 to 304 °C	N#Cc1ccc(-c2cccc(-c3nc4cc(C#N)ccc4[nH]3)c2)cc1
170 to 173 °C	Cc1ccccc1Oc1cccc(C(N)C(=O)O)c1O (centres undefined)
55 to 56 °C	CC1(OCc2ccccc2)CCCC(C)(C(=O)Nc2ccccc2)O1 (centres undefined)
196 to 197 °C	CC(C)c1cccc(C(C)C)c1NC(=O)NCC1(c2ccc(C(F)(F)F)cc2)CCCC1
185 to 186 °C	N#CCc1cc(Br)c(C(=O)c2ccc(Cl)cc2)[nH]1
155 to 156 °C	O=C(O)CCc1cn(Cc2ccc(OCCn3ncc4ccccc4c3=O)cc2)nc1-c1ccccc1
90 °C	O=C1CN(Cc2ccccn2)CC(=O)N1CCCN1CCN(c2ccc(F)cc2)CC1
188 to 189 °C	COC(=O)COc1c(Br)cc(-c2c3ccccc3c(Br)c3oc4ccccc4c23)cc1Br
195 °C	CC(C)(C)C1=NC(=Cc2[nH]c(C(C)(C)C)c3ccccc23)c2ccccc21
141 to 143 °C	Cc1cc(OCc2sc(-c3ccc(C(F)(F)F)cc3)nc2C)ccc1CCC(=O)O
55 to 59 °C	C=C(c1ccccc1)c1cccc(NS(=O)(=O)C(F)(F)F)c1
187 to 189 °C	COCCOc1cc2c(cc1C#Cc1ccccc1)NC(=O)CC(c1cccc(-n3ccnc3)c1)=N2
65 to 66 °C	CCOC(=O)C(C(=O)OCC)c1ccc(OCc2ccccc2)cc1
125 to 127 °C	Clc1ccc2c(c1)C(Cl)c1ccccc1CO2 (centres undefined)
222 to 223 °C	N#Cc1ccc(C(=O)Nc2nc(-c3ccco3)c(C(=O)C3CCOCC3)s2)o1

More lines, now with the values behind:

Compound	melting point
CC(=O)C1=C(C)CC2C3CCC4CC5OC5CC4(C)C3C(=O)CC12C (centres undefined)	155 to 157 °C
Nc1cccc(-c2ccc(CCN3CCN(C(=O)Cc4ccccc4)CC3)cc2)n1	135 to 137 °C
O=C(NCC12CC3CC(CC(C3)C1)C2)c1cc(I)cnc1Cl	163 to 164 °C
CCC1(c2ccc(C(O)C(C)(C)C)cc2)OCCO1 (centres undefined)	52 to 56 °C
Cc1sc2c(c1C(=O)CCCl)NC(=O)CCC2	86 to 87 °C
COc1cccc(C(=CC2CCN(CCCCCCCCc3cccnc3)CC2)c2cccc(OC)c2)c1	112 to 115 °C
CCCCCCC(O)CNCCO (centres undefined)	45 °C
O=C(O)[C@@H]1CCCN1C(=O)CCCS	157 to 158 °C
NN1C=NNC1=Cc1ccccc1	171 to 173 °C
O=C(O)C(CCC1=CCCCC1)Oc1ccc(-c2ccc(Cl)s2)cc1 (centres undefined)	136 to 138 °C
CNC(=S)N(C)NC(=O)c1cccs1	176 to 178 °C
O=Cc1cc(S(=O)(=O)O)c2cccnc2c1O	286 to 288 °C
COC(C)=Nc1nc[nH]c1C#N	147 to 149 °C
COc1ccc(OCCC#N)cc1	58 °C
CCC(=O)Nc1nc(N[C@H]2c3cc(C)ccc3C[C@@H]2C)nc(C(F)F)n1	66 °C
CN1CCN(c2ccc(O)c3c2C[C@H](NC(=O)c2ccc(N4CCOCC4)cc2)CC3)CC1	84 to 88 °C
Cc1ccnc(-c2cccnc2)c1OC1SCC(O)C(O)C1O (centres undefined)	98 °C
O=C(c1cc(I)c[nH]1)C(Cl)(Cl)Cl	140 °C
Cc1nnc2n1-c1ccccc1C(c1ccccc1C(F)(F)F)OC2 (centres undefined)	265 to 269 °C
COC(=O)C1=C(C)NC(C)=C(C(=O)OCCN2CCN(C(c3ccc(Cl)cc3)c3ccc(Cl)cc3)CC2)C1c1cccc(Cl)c1Cl (centres undefined)	104 to 107 °C
Cn1nc(-c2cc(C=C(Cl)C(=O)O)c(Cl)cc2F)c(Cl)c1C(F)(F)F	195 to 196 °C
O=[N+]([O-])c1ccc2[nH]cc(C3=CCN(CC4CC4)CC3)c2c1	187 to 188 °C
O=C1c2cccc(O)c2N=CC2CCCN12 (centres undefined)	146 to 148 °C

Compound	melting point
CON=C1CCc2c(cccc2OCC(O)CN2CCN(C(c3ccccc3)c3ccccc3)CC2)C1 (centres undefined)	> 183 °C
N#Cc1nn(-c2c(Cl)cc(C(F)(F)F)cc2Cl)cc1-c1ccoc1Br	111 °C
CC(Cl)C(=O)NCCO (centres undefined)	64 °C
CC(=O)C1CCC2C3CCC4=CC(=O)CCC4(CO)C3CCC12C (centres undefined)	165 to 168 °C
Cc1cccc(C(N)c2ccc3nc(NC4CCN(CCO)CC4)n(Cc4nc(C)ccc4O)c3c2)c1 (centres undefined)	137 °C
NS(=O)(=O)NC(=O)NCCCCC1CCSS1 (centres undefined)	123 to 125 °C
Cn1c(C(F)(F)F)cc(=O)[nH]c1=O	140 to 142 °C
Nc1ccc(Cl)cc1-c1ncn[nH]1	170 to 175 °C
CCCCc1nc2c(N)nc3cccnc3c2n1CCNC(C)=O	228 to 230 °C
CCCCc1oc2ccccc2c1C(Sc1nc2ccccc2s1)c1ccc(-c2ccc(O)cc2)cc1 (centres undefined)	130 to 132 °C
CN(C)CCNC(=O)c1c[nH]c(=S)n1C1CCc2c(F)cc(F)cc2C1 (centres undefined)	125 °C
CCCC(=O)c1cnc(C(CC2CCCC2)c2ccc(S(C)(=O)=O)cc2)[nH]1 (centres undefined)	159 to 163 °C
CCCCC1(C(F)(F)F)NC(=O)Nc2ccc(F)cc21 (racemic)	198 °C
COc1ccc(OCC2(CI)CC2)cc1	53 to 54 °C
COc1c(O)cnc(CNc2nc(C)nc(C)c2Cl)c1C	220 to 224 °C
NC(=O)c1cccc(N)c1N	103 to 105 °C
CC(=O)N(c1ncc(C(F)(F)F)cc1Cl)c1c([N+](=O)[O-])cc(C(F)(F)F)c(Cl)c1[N+](=O)[O-]	75 to 77 °C
COc1ccc2c(c1)CCC1C2C(OC(C)=O)CC2(C)C(OC(C)=O)CCC12 (centres undefined)	214 to 215 °C
CC(C)(C)OC(=O)N[C@H]1CN(Cc2ccccc2)[C@@H]2CCO[C@H]12 (relative stereo)	115 to 116 °C
O=C(C=Cc1ccco1)CCCCCl	50 to 52 °C
COc1ccc(C2CCCN(C(=O)C(F)(F)F)C2)cc1 (centres undefined)	88 °C
COC(=O)c1ccc(Cl)c(-n2nn[nH]c2=O)c1Cl	192 to 193 °C
CCCCCCCCC(SCCCCCC)C(=O)Nc1c(SC)ccc2ncccc12 (centres undefined)	91 to 92 °C
